Source: US20090098529A1 (priority 2006, published 2009)
Where two headings read alike, the source gives them in different places.

How the values were obtained:
Settings in all cases: mouse, in vivo
PANC-1 tumors [1] = tested on: PANC-1 tumors; parameters: species or system nude mice
A549 tumors = tested on: A549 tumors; parameters: species or system nude mice
PANC-1 tumors [2] = tested on: PANC-1 tumors; parameters: species or system nude mice; remark: listed apart in the source
GI-101A tumors = tested on: GI-101A tumors

## N.N.[Cl][Pt][Cl] [Cisplatin, cis-diamminedichloroplatinum]
PANC-1 tumors [1]
  Effect on tumor growth: unable to arrest tumor growth

## Nc1ccn([C@@H]2O[C@H](CO)[C@@H](O)C2(F)F)c(=O)n1 [Gemcitabine]
A549 tumors
  Effect on tumor growth: actually increased tumor growth
PANC-1 tumors [2]
  Effect on tumor growth: moderately decreased tumor growth

## Nc1ccn(C[C@@H](CO)OCP(=O)(O)O)c(=O)n1 [cidofovir]
GI-101A tumors
  Interference with tumor therapy by the virus: did not significantly interfere with tumor therapy by the virus
  Survival time of GLV-1h74 injected mice: significantly extended the survival time
